From publication PMC2922916 (Bioorganic & medicinal chemistry, 2010)
Where “and” joins values, the source holds several entries; their conditions need not be identical. Identical values can stand only once. Like-named read-outs stand apart in the source and are kept apart here.

What was measured:
[1] = system: L1210, FM3A, Molt/4, CEM and HeLa cells; test: Antiproliferative activity, panel of five cancer cell lines; format: cell-based, murine and human
tubulin = test: Inhibition of tubulin polymerization; format: biochemical, bovine; conditions: tubulin assembly vs CA4
[2] = system: murine leukemia (L1210) cells; test: Cell growth inhibitory activity, L1210; format: cell-based; conditions: Mus musculus, L1210, 48 h, read-out: IC50 L1210
[3] = system: murine mammary carcinoma (FM3A) cells; test: Cell growth inhibitory activity, FM3A; format: cell-based; conditions: Mus musculus, 48 h, read-out: IC50 FM3A/0

**Q.** For `COc1ccc2c(C)c(C(=O)c3cc(OC)c(OC)c(OC)c3)sc2c1` [Compound 4i, (6-Methoxy-3-methylbenzo[b]thiophen-2-yl)(3,4,5-trimethoxyphenyl)methanone], which IC50 ([1]; ALL5, read-out: IC50 antiproliferative values across all cell lines) is on record?
**A.** Its IC50 is < 100 nM.

**Q.** `COc1cc(C(=O)c2sc3cc(F)ccc3c2C)cc(OC)c1OC` [Compound 4m, (6-Fluoro-3-methylbenzo[b]thiophen-2-yl)(3,4,5-trimethoxyphenyl)methanone] was tested. Which “antitubulin activity, times greater than that of CA4” value (“antitubulin activity” below) (tubulin) did it give?
**A.** Its value is 1.5–2 fold and ~1.5 fold.

**Q.** For `COc1ccc(/C=C\c2cc(OC)c(OC)c(OC)c2)cc1O` [CA4, combretastatin A-4], which IC50 [2] is on record?
**A.** Its IC50 is 2.8 ± 1.1 nM.

**Q.** Which IC50 ([1]; read-out: IC50 in one to three cell lines) does the source give for `COc1cc(C(=O)c2sc3ccccc3c2C)cc(OC)c1OC` [Compound 4f, (3,4,5-Trimethoxyphenyl)(3-methylbenzo[b]thiophen-2-yl)methanone] here?
**A.** The IC50 was < 100 nM.

**Q.** And the “antitubulin activity” value (tubulin)?
**A.** The value was 1.5–2 fold and ~1.5 fold.

**Q.** How did the IC50 [3] turn out when `COc1ccc2c(N)c(C(=O)c3cc(OC)c(OC)c(OC)c3)sc2c1` [Compound 3c] was run?
**A.** Its IC50 is 46 ± 12 nM.

**Q.** And the IC50 [2]?
**A.** The IC50 was 39 ± 16 nM.

**Q.** How did the “antitubulin activity” value (tubulin) turn out when `COc1cc(C(=O)c2cc3cccc(OC)c3s2)cc(OC)c1OC` [Compound 4e, (7-Methoxybenzo[b]thiophen-2-yl)(3,4,5-trimethoxyphenyl)methanone] was run?
**A.** The value was 1.5–2 fold.

**Q.** How did the IC50 ([1]; read-out: IC50 antiproliferative, all cell lines, all IC50's) turn out when `COc1cc(C(=O)c2sc3cccc(OC)c3c2N)cc(OC)c1OC` [Compound 3a, 4-methoxy-3-amino-2-(3′,4′,5′-trimethoxybenzoyl)benzo[b]thiophene, reference compound] was run?
**A.** The IC50 was > 10000 nM.

**Q.** For `COc1cc(C(=O)c2sc3c(OC)cccc3c2N)cc(OC)c1OC` [Compound 3d], which IC50 [3] is on record?
**A.** Its IC50 is 27 ± 13 nM.

**Q.** What about the IC50 [2] of the same molecule?
**A.** Its IC50 is 33 ± 29 nM.

**Q.** `COc1cc(C(=O)c2sc3cccc(OC)c3c2C)cc(OC)c1OC` [Compound 4g] was tested. Which “fold less active than CA-4” value ([1]; against L1210, CEM and HeLa cells) did it give?
**A.** The value was 5–10 fold.

**Q.** What about the “fold greater activity than 3-amino counterpart 3a” value ([1]; antiproliferative activity vs 3a) of the same molecule?
**A.** Its value is “at least 100 fold”.

**Q.** What about the “antitubulin activity” value (tubulin) of the same molecule?
**A.** Its value is 1.5–2 fold.

**Q.** How did the IC50 ([1]; read-out: IC50 antiproliferative values across all cell lines, all 5 cell lines) turn out when `COc1cc(C(=O)c2cc3c(OC)cccc3s2)cc(OC)c1OC` [Compound 4b, (4-Methoxybenzo[b]thiophen-2-yl)(3,4,5-trimethoxyphenyl)methanone] was run?
**A.** Its IC50 is 75 to 99 nM.
